Test results from patent publication US9610273B2, “Method for the treatment of hypercholesterolemia” (SAMI LABS LIMITED, priority 2014, dated 2017).
Marks after values point to notes of the source that are not given here.

Legend:
[1] = system: C57 mice on high fat diet (60 kcal % Fat); experiment: Effect of Calebin A on serum clinical chemistry parameters in high fat diet obese mice (hypercholesterolemia and hyperlipidemia); assay type: in vivo; settings: for change in mean Albumin values: female animals, considered incidental; for ALT/SGPT / AST/SGOT / Albumin / Glucose / Total Cholesterol / Total Protein / Triglycerides / HDL / LDL / VLDL: 28 days, serum, n = 5; for ALT/SGPT / AST/SGOT / Albumin / Glucose / Total Cholesterol / Total Protein / Triglycerides: Mean ± SD; for HDL / LDL / VLDL: mean
Description: d. Diet: The animals were fed ad libitum with AMRUT Laboratory Animal feed manufactured by Pranav Agro Industries Limited, Sangli, Maharastra throughout the acclimatization Open Source Diet D12450B diet (with 10 kcal % Fat) and Open Source Diet D12492 High fat diet (with 60 kcal % Fat) manufactured by Research Diet Inc, USA procured from Indus Marketing, Hyderabad, Andhra Pradesh, INDIA was used for induction of obesity and the main study.
Grouping of animals was done on the last day of acclimatization by body weight randomization and stratification method.
The animals were divided into 5 groups viz., Group 1, 2, 3, 4 and 5 consisting of 10 animals (5 male and 5 female) each.
a. Dose Volume: Dose volume/animal=10 ml/kg body weight for all animals throughout the study period
b. Obesity induction: The G1 Control group animals were fed with normal control diet feed D12450B containing 10 kcal % fat and the G2 to G5 group animals were fed with high fat diet feed D12492 containing 60 kcal % fat during the induction of obesity and during main study. Obesity induction was done considering the scientific rationale that obesity is a serious risk factor for hypercholesterolemia.
c. Main Study: The main study was started after the induction of obesity. The 3 doses of Calebin A was administered to animals from Day 29 daily consecutively for a period of 28 days. The feeding of diets continued in the main study in a similar way as performed in induction of obesity. The G1 Control and G2 High fat diet control group animals were administered with 0.5% CMC (Carboxy Methyl Cellulose) while other group animals received test item from Day 29 to Day 56 of the study period. The dose volume of administration was maintained according to the weekly body weight of individual animals.
d. Duration of the study: The total duration of the study was 61 days (5 days Acclimatization period+28 days Induction of obesity+[…] Main study).
The raw data obtained from the present study were subjected to computer statistical processing. The computer printout of the data (in the form of appendix) was verified with the original raw data. After verification, the data was subjected to One-way ANOVA (Analysis of Variance) with Dunnett's post test for the data on body weights, hematology and clinical chemistry parameters, organ weights using GraphPad Prism version 5.01, GraphPad Software. All analyses and comparisons was evaluated at the 95% level of confidence (P<0.05), indicated by the designated by the superscripts of a where G1 is compared to G3, G4, G5, and G6 and b where G2 is compared to G3, G4, G5, and G6 throughout the report as stated below: *: Statistically significant (P<0.05) wherever applicable.
At the completion of the study period, blood samples were collected from all the animals in tubes containing potassium ethylene […] tetra acetic acid (K2-EDTA) anticoagulant for hematology and without anticoagulant for clinical chemistry. The blood samples collected in tubes without anticoagulant were centrifuged at 3000 rpm for 10 minutes to obtain serum. Blood samples were collected humanely from retro-orbital plexus puncture method under mild ether anesthesia with the help of a fine capillary tube. The following clinical chemistry parameters were analyzed.
The following clinical chemistry parameters (TABLE III) were analyzed using the “Erba Mannheim Chem Touch analyzer” (Transasia Bio-Medicals Ltd, India) from serum samples.

[2] = system: mice; experiment: Acute Oral Toxicity of Calebin A; assay type: in vivo
Protocol: No mortality was observed up to 2000 mg/kg p.o. in mice up to two weeks of observation.

[3] = conclusion, doses of 5, 10 and 20 mg/kg body weight, hypercholesterolemic mammals
[4] = female mice, G3 5 mg/kg + High fat diet (60 kcal % Fat)
[5] = female mice, G4 10 mg/kg + High fat diet (60 kcal % Fat)
[6] = female mice, G5 20 mg/kg + High fat diet (60 kcal % Fat)
[7] = male and female animals, G3, G4, G5 (5, 10, 20 mg/kg + High fat diet) compared to G2 High fat diet Control
[8] = male animals, G3, G4, G5 (5, 10, 20 mg/kg + High fat diet) compared to G2 High fat diet Control
[9] = male mice, G3 5 mg/kg + High fat diet (60 kcal % Fat)
[10] = male mice, G4 10 mg/kg + High fat diet (60 kcal % Fat)
[11] = male mice, G5 20 mg/kg + High fat diet (60 kcal % Fat)

## COc1cc(/C=C/C(=O)COC(=O)/C=C/c2ccc(O)c(OC)c2)ccc1O [Calebin A]
[1]; [3]
  HDL concentrations in the blood: increased
  LDL concentrations in the blood: decreased
  VLDL concentrations in the blood: decreased
[1]; conclusion, doses of 5, 10 and 20 mg/kg body weight, hyperlipidemic mammals
  serum triglyceride concentrations: lowered
[1]; G5 20 mg/kg + High fat diet compared to G1 Control (10 kcal % Fat)
  change in mean Albumin values: statistically significant decrease
[1]; G5 20 mg/kg + High fat diet compared to G2 High fat diet Control
  change in mean Albumin values: statistically significant decrease
[1]; [4]
  ALT/SGPT: 41.73 ± 5.39 IU/L
  AST/SGOT: 80.51 ± 32.35 IU/L
  Albumin: 2.82 ± 0.19 g/dL
  Glucose: 134.52 ± 26.85 mg/dL
  Total Cholesterol: 75.71 ± 13.90 mg/dL
  Total Protein: 5.37 ± 0.80 g/dL
  Triglycerides: 60.15 ± 10.25 mg/dL
  HDL: 81.59 mg/dL
  LDL: 78.68 mg/dL
  VLDL: 15.14 mg/dL
[1]; [5]
  ALT/SGPT: 63.29 ± 32.86 IU/L
  AST/SGOT: 79.89 ± 50.05 IU/L
  Albumin: 2.80 ± 0.38 g/dL
  Glucose: 112.34 ± 11.35 mg/dL
  Total Cholesterol: 47.54 ± 14.21 mg/dL
  Total Protein: 4.91 ± 0.20 g/dL
  Triglycerides: 59.70 ± 4.33 mg/dL
  HDL: 66.85 mg/dL
  LDL: 61.20* ^b ± mg/dl
  VLDL: 9.51 mg/dL
[1]; [6]
  ALT/SGPT: 55.51 ± 16.94 IU/L
  AST/SGOT: 79.91 ± 36.82 IU/L
  Glucose: 93.58 ± 11.49 mg/dL
  Total Cholesterol: 69.14 ± 21.88 mg/dL
  Total Protein: 4.88 ± 0.27 g/dL
  Triglycerides: 52.88 ± 4.56 mg/dL
  HDL: 66.67 mg/dL
  LDL: 52.31** ^b ± mg/dl
  VLDL: 13.83 mg/dL
[1]; [7]
  change in mean Low Density Lipoproteins values: decrease
  change in mean Very Low Density Lipoproteins values: decrease
[1]; male and female animals, G4, G5 (10, 20 mg/kg + High fat diet) compared to G2 High fat diet Control
  change in mean high Density Lipoproteins values: increase
[1]; [8]
  change in mean Total Cholesterol values: decrease
  change in mean Triglycerides values: decrease
[1]; [9]
  ALT/SGPT: 64.35 ± 24.58 IU/L
  AST/SGOT: 86.99 ± 35.22 IU/L
  Albumin: 2.73 ± 0.23 g/dL
  Glucose: 159.30 ± 17.02 mg/dL
  Total Cholesterol: 63.46 ± 16.64 mg/dL
  Total Protein: 4.74 ± 0.23 g/dL
  Triglycerides: 76.53 ± 17.11 mg/dL
  HDL: 20.46 mg/dL
  LDL: 85.55 mg/dL
  VLDL: 12.69 mg/dL
[1]; [10]
  ALT/SGPT: 54.81 ± 13.58 IU/L
  AST/SGOT: 89.48 ± 35.58 IU/L
  Albumin: 2.43 ± 0.42 g/dL
  Glucose: 130.49 ± 21.28 mg/dL
  Total Protein: 5.08 ± 0.49 g/dL
  HDL: 41.80 mg/dL
  LDL: 97.45 mg/dL
  VLDL: 12.37*^b ± mg/dl
[1]; [11]
  ALT/SGPT: 48.44 ± 9.73 IU/L
  AST/SGOT: 90.17 ± 25.87 IU/L
  Albumin: 2.66 ± 0.17 g/dL
  Glucose: 105.89 ± 37.17 mg/dL
  Total Cholesterol: 70.48 ± 14.59 mg/dL
  Total Protein: 4.42 ± 0.48 g/dL
  HDL: 47.26 mg/dL
  LDL: 94.46 mg/dL
  VLDL: 14.10 mg/dL
[2]; mouse, in vivo, po
  Aggression: Aggression = Nil
  Atexia: Atexia = Nil
  Blanching: Blanching = Nil
  Clonic Convulsions: Clonic Convulsions = Nil
  Corneal: Corneal = No effect
  Cyanosis: Cyanosis = Nil
  Diarrhea: Diarrhea = Nil
  Excitation: Excitation = Nil
  Fear: Fear = Nil
  Fecal Output: Fecal Output = Normal
  General Locomotor Activity: Normal
  General Movement: General Movement = Normal
  Hyperaemia: Hyperaemia = Nil
  Muscular Weakness: Muscular Weakness = Nil
  Passive: Passive = Nil
  Pilo Erection: Pilo Erection = Nil
  Pinnal: Pinnal = No effect
  Respiration Depth: Respiration Depth = Normal
  Respiration Rate: Respiration Rate = Normal
  Salivation: Salivation = Nil
  Tonic Convulsion: Tonic Convulsion = Nil
  Tremors: Tremors = Nil
  Urine Output: Urine Output = Normal
[2]; up to 2000 mg/kg p.o., mice, up to two weeks of observation
  mortality: No mortality
